The target in assay [1] is T1, Scavenger receptor class B member 1 (Mus musculus, UniProt Q61009).
T1 sequence (Q61009 whole entry): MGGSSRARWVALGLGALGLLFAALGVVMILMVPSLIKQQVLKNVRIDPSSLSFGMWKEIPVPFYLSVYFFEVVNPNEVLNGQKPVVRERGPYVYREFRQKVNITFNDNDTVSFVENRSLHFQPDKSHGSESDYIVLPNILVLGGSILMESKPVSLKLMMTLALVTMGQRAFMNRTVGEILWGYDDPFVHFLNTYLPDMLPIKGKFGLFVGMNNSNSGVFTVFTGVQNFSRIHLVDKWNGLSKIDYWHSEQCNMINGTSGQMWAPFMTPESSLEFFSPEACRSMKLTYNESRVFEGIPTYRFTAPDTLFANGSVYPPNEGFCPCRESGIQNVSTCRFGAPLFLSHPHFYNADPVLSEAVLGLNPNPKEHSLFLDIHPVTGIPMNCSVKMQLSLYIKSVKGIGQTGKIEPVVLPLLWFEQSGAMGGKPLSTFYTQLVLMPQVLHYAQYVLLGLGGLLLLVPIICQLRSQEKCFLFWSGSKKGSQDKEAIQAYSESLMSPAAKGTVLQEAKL
In words: inhibitors of SR-BI dependent HDL uptake, dose response, ldlA[mSR-BI] CHO cells, fluorescence plate reader, dry powder, set 9 (AID 623880). It is filed as functional, cell-based.

The nature of assay [2]: cytotoxicity in ldlA[mSR-BI] CHO cells, dose response, cytotoxicity control for SR-BI HDL uptake inhibitor project, cell-based, CellTiter-Glo, 24 h, powder samples, set 7 (AID 624026). Format: functional. (In general: ATP-based viability assays read luminescence as a measure of living cells.)
The target in assay [3] is T1, Scavenger receptor class B member 1. The experiment in a line: inhibitors of SR-BI-mediated HDL uptake, dose response, cell-based, ldlA[mSR-BI] CHO, DiI fluorescence, dry powder, set 10 (AID 624029). Format: functional.
A short description of assay [4]: cells. Format: functional, cell-based.
Assay [5] deals with T2, Trace amine-associated receptor 1 (Homo sapiens, UniProt Q96RJ0). The experiment in a line: Fluorescence-based cell-based high throughput dose response assay to identify agonists of the human trace amine associated receptor 1 (TAAR1). Format: functional.
For assay [6], the target named is T2, Trace amine-associated receptor 1. In words: Counterscreen for agonists of the human trace amine associated receptor 1 (hTAAR1): Fluorescence-based cell-based high throughput dose response assay to identify hTAAR1 agonist that also desensitize TAAR1 receptor response. Format: functional.
A short description of assay [7]: cells. Format: functional, cell-based. The source holds these as a separate data set.
Assay [8] is described as follows: HEK293T cytotoxicity, dose response, cytotoxicity control for miR-122 modulator project, cell-based, inhibitor set, cherry-pick, set 2 (AID 720697). Format: functional.
Assay [9] deals with SUMO-activating enzyme (Homo sapiens, UniProt Q9UBT2). The experiment in a line: SUMOylation inhibitor hit validation, confirmation, SUMOylation inhibitor project, biochemical, AlphaScreen (AID 2018). It is filed as functional. (Alpha assays give light when donor and acceptor beads are brought close together.)
The nature of assay [10]: inhibitors of HIV Env-driven cell fusion, dose response, cherry-pick (AID 652057). Format: functional, cell-based.
The nature of assay [11]: CEM21 lymphoblast cell cytotoxicity, dose response, cytotoxicity control for viral fusion inhibitor project, CellTiter-Glo luminescence, cherry-picked (AID 652042).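 Further: potency for signal decrease meaning cytotoxicity.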 It is filed as functional, cell-based.
Assay [12] is described as follows: ZM109 Env clade C HIV-1 fusion inhibitors, dose response, HeLa effector, CEM target cells, luciferase, cherry-pick (AID 652058). Format: functional, cell-based.
Assay [13] can be described thus: off-target signal loss in HeLa-CEM21 co-culture – HeLa F-luc CTL cells, cherry-picked, counter-screen for HIV-1 Env fusion inhibitor project, dose response (AID 652040).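 Further: potency for signal decrease marking cytotoxic or nonspecific inhibition.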 Format: functional, cell-based. Background: A counterscreen serves to expose hits that act by an unwanted route or on another target.
Assay [14] is described as follows: inhibitors of clade B AD8 Env fusion, dose response, cell-based, cherry-pick (AID 652062).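 Further: luciferase signal from cell-cell fusion driven by HIV-1 clade B AD8 Env; potency is for inhibitors of fusion seen as a drop in luminescence.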 Format: functional.
Assay [15] deals with Paired box protein Pax-8 (Homo sapiens, UniProt Q06710). The experiment in a line: inhibitors of PAX8-driven TPO luciferase reporter, dose response, RMG-I cells, cherry-pick (AID 687027).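 Further: luciferase reporter driven by Pax8 target thyroperoxidase promoter measured by SteadyGlo luminescence.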 It is filed as functional, cell-based.
A short description of assay [16]: A2780 ovarian cancer cell cytotoxicity, dose response, cytotoxicity control, plate reader, dry powder samples (AID 743046). Format: functional, cell-based.
A short description of assay [17]: inhibitors of CMV-promoter luciferase reporter, dose response, counter-screen for Pax8 inhibitor project, cell-based, HEK293, luminescence, dry powder (AID 743020). Format: functional.
Assay [18] in a line: NIH:OVCAR-3 ovarian cancer cell cytotoxicity, dose response, PAX8 inhibitor project, plate reader, dry powder samples (AID 743044). It is filed as functional, cell-based.
Assay [19] can be described thus: IGROV1 ovarian cancer cell cytotoxicity, dose response, PAX8 inhibitor project, plate reader, dry powder samples (AID 743043). As to conditions: IGROV-1. It is filed as functional, cell-based.
A short description of assay [20]: cytotoxicity in OVCAR8 ovarian cancer cells, dose response, PAX8 project, cell-based, plate reader, dry powder samples (AID 743197). Format: functional. As to conditions: OVCAR-8.
The target of assay [21] is Fructose-bisphosphate aldolase (Mycobacterium tuberculosis, UniProt P9WQA3). The experiment in a line: Fluorescence-based biochemical high throughput dose response assay for inhibitors of the fructose-bisphosphate aldolase (FBA) of M. tuberculosis. Format: functional.
The target of assay [22] is Kallikrein-7 (Homo sapiens, UniProt P49862). In words: Fluorescence Intensity-based biochemical primary high throughput dose response assay to identify activators of kallikrein-7 (K7) zymogen.
Assay [23] is described as follows: EDANS-DABCYL fluorescence interference, concentration series, dose response, artefact control for kallikrein-7 zymogen activator project, biochemical, fluorescence intensity, triplicate (AID 720493).
The target of assay [24] is Major prion protein (Homo sapiens, UniProt P04156). It is filed as functional, cell-based.
Assay [25] is described as follows: cells.

From ChEMBL document CHEMBL1201862, “PubChem BioAssay data set” (2004) come the findings set out here.

Molecules are shown by their SMILES. Activity calls are given as the source filed them.

On to `CC(=O)Nc1ccc(Cl)c(C(=O)Nc2ccc(N3CCN(C(=O)OC(C)(C)C)CC3)cc2)c1`, for which the AC50 is 0.00659 µM (active) in assay [1], > 70 µM (inactive) in assay [2] and 0.00402 µM (active) in assay [3].

In the case of `O=C(NCCc1cccs1)C1CC(c2cccc(F)c2)=NO1` (stereo not given), the IC50 is > 29.9 µM (inactive) in [4] and 2.6 µM (active) in assay [6]. The EC50 is 13.7 µM (inactive) in assay [5] and > 29.9 µM (inactive) in [7].

For `COc1cccc(NC(=O)Nc2ccc3c(c2)C(=O)N(C)C[C@@H](OC)[C@@H](C)CN[C@H](C)CO3)c1`, in assay [8], the AC50 is 1.49 µM (active).

Turning to `Cc1ccc(C)c(OCC(=O)Nc2nonc2NC(=O)COc2cc(C)ccc2C)c1`, in [9], the IC50 was 45.4 µM (active). Further, the AC50 in [10] is 2.68 µM (active); in assay [11] it was 25.4 µM (active); in assay [12], 1.4 µM (active); in [13], 6.79 µM (active); in [14] it was 4.31 µM (active).

Regarding `C[C@@H]1CCCCO[C@H](CN(C)Cc2ccc(C(F)(F)F)cc2)[C@@H](C)CN([C@@H](C)CO)C(=O)c2cc(NC(=O)Nc3ccc(F)cc3)ccc2O1`, the AC50 in assay [15] was 5.36 µM (active); in assay [16], 51.7 µM (active); in [17] it was 35.7 µM (active); in assay [18], 21.4 µM (active); in assay [19], 43.6 µM (active); in assay [20] it was 32.1 µM (active).

As to `COC(=O)C1=CN(Cc2ccc(F)cc2)C=C(C(=O)OC)C1c1cc(OC)c(OC)c(OC)c1`, in assay [21], the IC50 is 1.65 µM (active).

Consider `CCOC(=O)c1c(N)n(CCN2CCCCC2)c2nc3ccccc3nc12`, for which the EC50 in assay [22] is 3.62 µM (active); in assay [23], > 2.58 µM (active).

Turning to `Cc1ccc(S(=O)(=O)N2CCCCC2)cc1NC(=O)CSc1ncnc2ccccc12`, the IC50 was 5.6 µM (active) in assay [24] and > 138 µM (inactive) in assay [25].

For orientation: AC50 means the concentration giving half of the maximal activity seen. The IC50 is the concentration needed to halve the response being measured. For orientation: EC50 means the concentration at which the effect is half-maximal.
